Structures can show the parent of a compound that is named as a salt.
Assays:
[1] = target: human plasma kallikrein (Homo sapiens, UniProt P03952); assay: biochemical; conditions: purified human plasma kallikrein, substrate S-2302, sodium phosphate buffer pH 7.5
[2] = target: human Factor XIa (Homo sapiens, UniProt P03951); assay: biochemical; conditions: purified human Factor XIa, substrate S-2366, HEPES buffer pH 7.4
Chain of human Factor XIa (P03951 388-625 limits assumed): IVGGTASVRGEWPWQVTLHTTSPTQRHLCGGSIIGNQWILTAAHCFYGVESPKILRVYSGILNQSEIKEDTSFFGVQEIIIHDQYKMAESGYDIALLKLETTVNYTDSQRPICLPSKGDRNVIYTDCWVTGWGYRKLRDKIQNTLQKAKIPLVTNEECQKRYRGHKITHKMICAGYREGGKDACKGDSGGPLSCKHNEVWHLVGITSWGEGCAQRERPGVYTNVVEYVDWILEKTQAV
Chain of human Factor XIa (P03951 19-387 partner limits assumed): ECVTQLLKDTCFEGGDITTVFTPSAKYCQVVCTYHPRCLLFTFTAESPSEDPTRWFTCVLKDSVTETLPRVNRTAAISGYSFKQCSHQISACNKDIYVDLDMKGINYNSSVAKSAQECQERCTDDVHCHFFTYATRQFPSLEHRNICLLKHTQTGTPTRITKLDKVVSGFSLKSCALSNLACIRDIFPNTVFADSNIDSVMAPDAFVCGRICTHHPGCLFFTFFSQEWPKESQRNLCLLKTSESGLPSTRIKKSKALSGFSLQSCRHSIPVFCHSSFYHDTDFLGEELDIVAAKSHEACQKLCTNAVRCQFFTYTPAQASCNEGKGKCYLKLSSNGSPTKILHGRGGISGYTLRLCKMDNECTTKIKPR

Chain of human plasma kallikrein (P03952 391-638 limits assumed): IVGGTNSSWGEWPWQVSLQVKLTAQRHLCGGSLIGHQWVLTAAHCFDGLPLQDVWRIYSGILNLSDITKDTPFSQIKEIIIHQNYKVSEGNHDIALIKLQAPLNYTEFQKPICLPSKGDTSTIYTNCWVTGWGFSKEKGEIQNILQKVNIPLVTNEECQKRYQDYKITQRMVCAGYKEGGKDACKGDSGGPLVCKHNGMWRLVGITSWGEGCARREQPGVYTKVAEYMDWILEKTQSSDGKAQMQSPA
Chain of human plasma kallikrein (P03952 20-390 partner limits assumed): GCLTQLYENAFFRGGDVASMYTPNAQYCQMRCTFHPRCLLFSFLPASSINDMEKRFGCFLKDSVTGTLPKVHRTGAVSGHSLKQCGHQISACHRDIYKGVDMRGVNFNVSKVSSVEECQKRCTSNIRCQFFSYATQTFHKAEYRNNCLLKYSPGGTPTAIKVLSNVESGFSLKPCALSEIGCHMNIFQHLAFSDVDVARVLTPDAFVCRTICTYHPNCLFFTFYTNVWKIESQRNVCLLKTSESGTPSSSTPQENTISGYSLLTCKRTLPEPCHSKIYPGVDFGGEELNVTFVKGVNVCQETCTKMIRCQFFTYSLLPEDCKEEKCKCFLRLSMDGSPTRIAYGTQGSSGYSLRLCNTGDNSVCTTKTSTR

Cc1ccc(-n2cc(C(F)(F)F)nn2)c(-c2cc(=O)n([C@H]3CCC[C@@H](C)C(=O)Nc4ccccc4-c4ccnc3c4)cn2)c1 [Example 81, (10R,14S)-10-methyl-14-(4-{5-methyl-2[4-(trifluoromethyl)-1H-1,2,3-triazol-1-yl]phenyl}-6-oxo-1,6-dihydropyrimidin-1-yl)-8,16-diazatricyclo [13.3.1.0^2,7]nonadeca-1(19),2(7),3,5,15,17-hexaen-9-one]
Ki [1]: 66 nM | Ki [2]: 0.63 nM

Cc1ccc(-n2cc(C(F)(F)F)nn2)c(-c2cc(=O)n([C@H]3CCC[C@@H](C)C(=O)Nc4cc(C#N)ccc4-c4ccnc3c4)cn2)c1 [Example 82, (10R,14S)-10-methyl-14-(4-{5-methyl-2-[4-(trifluoromethyl)-1H-1,2,3-triazol-1-yl]phenyl}-6-oxo-1,6-dihydropyrimidin-1-yl)-9-oxo-8,16-diazatricyclo [13.3.1.0^2,7]nonadeca-1(19),2(7),3,5,15,17-hexaene-5-carbonitrile]
Ki [1]: 176 nM | Ki [2]: 1.9 nM

C[C@@H]1CCC[C@H](n2cnc(-c3cc(Cl)ccc3-n3cc(Cl)nn3)cc2=O)c2cc(ccn2)-c2ccc(OC(F)F)cc2NC1=O [Example 93, (10R,14S)-14-{4-[5-chloro-2-(4-chloro-1H-1,2,3-triazol-1-yl)phenyl]-6-oxo-1,6-dihydropyrimidin-1-yl}-5-(difluoromethoxy)-10-methyl-8,16-diazatricyclo [13.3.1.0^2,7]nonadeca-1(19),2(7),3,5,15,17-hexaen-9-one trifluoroacetate]
Ki [1]: 4000 nM | Ki [2]: 100 nM

COc1ccc(-n2cc(C(F)(F)F)nn2)c(-c2cc(=O)n([C@H]3CCC[C@@H](C)C(=O)Nc4ccc(F)cc4-c4cncc3c4)cn2)c1 [Example 107, (10R,14S)-4-Fluoro-14-(4-{5-methoxy-2-[4-(trifluoromethyl)-1H-1,2,3-triazol-1-yl]phenyl}-6-oxo-1,6-dihydropyrimidin-1-yl)-10-methyl-8,17-diazatricyclo[13.3.1.0^2,7]nonadeca-1(19),2(7),3,5,15,17-hexaen-9-one]
Ki [1]: 1400 nM | Ki [2]: 142 nM

C[C@@H]1CCC[C@H](n2cnc(-c3cc(Cl)ccc3-n3cc(Cl)nn3)cc2=O)c2ccnc(c2)-c2ccc(C#N)cc2NC1=O [Example 112, (10R,14S)-14-{4-[5-chloro-2-(4-chloro-1H-1,2,3-triazol-1-yl)phenyl]-6-oxo-1,6-dihydropyrimidin-1-yl}-10-methyl-9-oxo-8,18-diazatricyclo [13.3.1.0^2,7]nonadeca-1(19),2(7),3,5,15,17-hexaene-5-carbonitrile]
Ki [1]: 19 nM | Ki [2]: 0.22 nM

C[C@@H]1CCC[C@H](n2cnc(-c3c(-n4cc(Cl)nn4)ccc(Cl)c3F)cc2=O)c2cc(ccn2)-c2cc(F)ccc2NC1=O [Example 142, (10R,14S)-14-{4-[3-chloro-6-(4-chloro-1H-1,2,3-triazol-1-yl)-2-fluorophenyl]-6-oxo-1,6-dihydropyrimidin-1-yl}-4-fluoro-10-methyl-8,16-diazatricyclo [13.3.1.0^2,7]nonadeca-1(19),2(7),3,5,15,17-hexaen-9-one trifluoroacetate]
Ki [1]: 7 nM | Ki [2]: 1 nM

C[C@H]1CCC[C@H](n2cnc(-c3cc(Cl)ccc3-n3cc(C(F)(F)F)nn3)cc2=O)c2ccnc(c2)-c2cc(F)ccc2NC1=O [Example 145, (10S,14S)-14-(4-{5-chloro-2-[4-(trifluoromethyl)-1H-1,2,3-triazol-1-yl]phenyl}-6-oxo-1,6-dihydropyrimidin-1-yl)-4-fluoro-10-methyl-8,18-diazatricyclo[13.3.1.0^2,7]nonadeca-1(19),2,4,6,15,17-hexaen-9-one]
Ki [1]: 100 nM | Ki [2]: 1.6 nM
